Patent US4923865A, “Substituted 1-(1H-imidazol-4-yl)alkyl-benzamides as anti-ischemics and as alpha-2-adrenergic receptor agonists” (U C B Societe Anonyme, priority 1988, dated 1990)
Read-outs that look alike come from different tables or passages of the source.

Columns and labels:
[1] = target: T1, presynaptic α2 -adrenergic receptors (Cavia porcellus, UniProt Q60474); assay: Inhibition of the contraction of electrically stimulated guinea-pig ileum
T1 construct: Stimulation of a guinea-pig ileum; from tissue; host or cells: guinea-pig ileum longitudinal muscle strips
T1 sequence (Q60474 1-464): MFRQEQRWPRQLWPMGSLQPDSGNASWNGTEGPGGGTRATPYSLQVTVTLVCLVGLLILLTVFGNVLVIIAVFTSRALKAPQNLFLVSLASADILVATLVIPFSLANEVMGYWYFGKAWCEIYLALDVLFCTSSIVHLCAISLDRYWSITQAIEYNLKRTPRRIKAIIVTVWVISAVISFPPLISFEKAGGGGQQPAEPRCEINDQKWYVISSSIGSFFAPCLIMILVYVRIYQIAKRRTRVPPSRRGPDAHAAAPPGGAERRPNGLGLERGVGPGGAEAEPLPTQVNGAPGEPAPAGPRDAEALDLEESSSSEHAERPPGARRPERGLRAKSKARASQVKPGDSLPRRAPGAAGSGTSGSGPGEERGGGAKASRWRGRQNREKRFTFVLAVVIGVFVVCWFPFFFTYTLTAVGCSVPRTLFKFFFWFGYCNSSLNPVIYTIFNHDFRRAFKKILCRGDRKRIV
Text: (c) Stimulation of a guinea-pig ileum. Longitudinal muscles strips attached to an isometric strain gauge are suspended in Tyrode's solution and are stretched under a tension of 1 g (G. M. DREW. Brit. J. Pharmacol. 64, (1978), 293-300; M. ANDREJAK et al., Naunyn-Schmiedelberg's Arch. Pharmacol. 314, (1980), 83-87).
Electrical stimulation of the parasympathetic nerves associated with the ileum fragments causes a contraction of the muscle. This contraction is reduced in the presence of a presynaptic α2 -agonist and the magnitude by which the contraction is reduced depends on the concentration of the agonist used. This effect is antagonized by the simultaneous presence of an α2 -antagonist such as α-yohimbine. The compounds to be studied have been tested at increasing concentrations ranging from 10^-10 to 10^-3 mole/l.
The concentration (IC50 in mole/l) that reduces by 50% the intensity of the contraction of the muscle is determined.
In the presence of α-yohimbine at a concentration of 10^-6 mole/l, the concentration of the compounds A or B, for example, that is required for reducing muscle contraction intensity by 50% is higher, and becomes greater than 10^-6 mole/l, which gives additional confirmation that the compounds of the invention act really at the level of the presynaptic α2 -adrenergic receptors.

[2] = system: male NMRI mice; assay: Toxicity, Irwin's test (lethal dose); assay type: in vivo; settings: intraperitoneal
Method: 5. Toxicity. The toxicity of the compounds according to the present invention has been determined in male NMRI mice by means of Irwin's test (S. IRWIN, Psychopharmacologia, 13, (1968), 222-257).
Progressive doses of the test compound are administered intraperitoneally to groups of three mice until the lethal dose is reached (dose causing the death of two out of three animals within 48 hours). In Table IX below, the lethal dose in mg/kg found for the compounds of the invention is given. It can be seen from this Table that the compounds of the invention are not very toxic.

[3] = target: T1, presynaptic α2 -adrenergic receptors; assay: Stimulation of the isolated guinea-pig atria (reduction in tachycardia); settings: isolated guinea-pig atria, electrical stimulation; read-out: IC30 (30% reduction in the maximum tachycardia)
Text: (b) Stimulation of the isolated guinea-pig atria. The release of noradrenalin at the level of the nerve endings is mediated by a feedback regulating mechanism through the presynaptic α2 -adrenergic receptors. […] Ed. D. S. DAVIES, J. L. REID, Pitman, London.
The electrical stimulation of the isolated guinea-pig atria induces a release of noradrenalin which results in an increase in the rate of the heart beat (tachycardia). This tachycardia is inhibited by an α2 -agonist such as, for example, clonidine, in a proportion which depends on the dose of the agonist used. The action of the α2 -agonist may be limited in the presence of an α2 -specific antagonist such as α-yohimbine.
The in vitro activity of the compounds of the invention on the presynaptic α2 -adrenergic receptors has been studied on the isolated guinea-pig atria, electrically stimulated according to the method described by I. C. MEDGETT et al., Naunyn-Schmiedeberg's Arch. Pharmacol. 304, (1978), 215-221. The compound to be studied is tested in increasing concentrations ranging from 10^-10 to 10^-3 mole/l. The concentration (IC30 in mole/l) which causes a 30% reduction in the maximum tachycardia obtained initially during the electrical stimulation of the atria in the absence of the compound to be tested, is determined.
On the other hand, in the presence of a concentration of 10^-6 mole/l of α-yohimbine, the concentration of compound A necessary to obtain a reduction of 30% in the tachycardia is greater than 10^-7 mole/l.

[4] = system: myocardial ischemia; assay: Artificially induced acute coronary insufficiency in an awake dog (ST-segment elevation); assay type: in vivo; settings: Canis lupus familiaris, 0.1 h, intravenous, 6 min coronary occlusion, groups of ten animals, read-out: DE20 (dose producing a mean reduction of at least 20% of the ST-segment elevation)
Text: Because of the reduction in the oxygen supply which results from this, the occlusion produces myocardial ischemia which is expressed on the electrocardiogram by a reproducible and quantifiable ST-segment elevation. The anti-ischemic action of a compound results in a reduction of the magnitude of the ST-segment elevation. (P. R. MAROKO and E. BRAUNWALD, Circulation, 53, (1976, Suppl. I), 162-168; S. E. EPSTEIN et al., Circulation, 53, (1976, Suppl. I), 191-197).

[5] = system: stenosis at the level of a coronary artery; assay: Effort trial on a moving belt in dogs with coronary artery stenosis; assay type: in vivo, dog; settings: maximum effort at 12 Km/h for 1 minute
Method: (b) Effort trial on a moving belt. In this test, a group of at least four dogs is used (equipped with intracardiac electrodes), the dogs having an organic stenosis at the level of a coronary artery. This stenosis causes imbalance between the demand and supply of oxygen when the animal is required to make an effort. This imbalance is expressed on the electrocardiogram by an increase in the ST-segment.
In the trial, the dog runs at a speed of 12 km/h on a moving belt having a slope of 15°. This maximum effort is required for one minute. During the trial, the increase in the ST-segment is recorded, together with the natural increase in the pulse rate. The experiment is repeated at least four times, and the mean of the values obtained is taken as reference (100%) for the group of animals. The animals are then allowed to rest for a minimum of 24 hours before being subjected to a new effort trial under the influence of the compound to be studied.
The compound to be studied is administered slowly (over 1 minute) by intravenous injection 5 minutes before the new effort trial. In the course of the latter, the variations in the same parameters are recorded.

[6] = guinea-pig ileum, electrical stimulation, read-out: IC50 (reduces by 50% the intensity of the contraction of the muscle)

SMILES	IC50 [1, 6]	lethal dose (death of two out of three animals within 48 hours) [2]	ED20 [4]	further results
CC(c1c[nH]cn1)c1cccc(C(N)=O)c1O.Cl (single isomer, unassigned; (+)) [P, (+)-2-hydroxy-3-[1-(1H-imidazol-4-yl)ethyl]-benzamide hydrochloride]	2 nM	294 mg/kg	–	–
CC(c1c[nH]cn1)c1cccc(C(N)=O)c1O.Cl (stereo not drawn) [B, 2-hydroxy-3-[1-(1H-imidazol-4-yl)ethyl]-benzamide hydrochloride]	3 nM	267 mg/kg	0.02 µmol/kg	IC30 [3]: 0.75 nM; IC50 ([1]; in the presence of 10^-6 mole/l of α-yohimbine, read-out: concentration required for reducing muscle contraction intensity by 50%): > 1000 nM
CNC(=O)c1cccc(Cc2c[nH]cn2)c1O.Cl [C, 2-hydroxy-3-[(1H-imidazol-4-yl)methyl]-N-methylbenzamide hydrochloride]	–	267 mg/kg	0.3 µmol/kg	IC30 [3]: 130 nM; reduction in ST-segment ([5]; dose 0.32 μmole/kg i.v.): 50%; reduction in the pulse rate ([5]; dose 0.32 μmole/kg i.v.): 1 beats/min.
NNC(=O)c1cccc(Cc2c[nH]cn2)c1O [Compound D, 2-hydroxy-3-[(1H-imidazol-4-yl)methyl]-benzohydrazide]	–	232 mg/kg	3 µmol/kg	IC30 [3]: 220 nM
Cl.O=C(NCCO)c1cccc(Cc2c[nH]cn2)c1O [E, 2-hydroxy-N-(2-hydroxyethyl)-3-[(1H-imidazol-4-yl)methyl]-benzamide hydrochloride]	60000 nM	893 mg/kg	< 3 µmol/kg	–
COc1c(Cc2c[nH]cn2)cccc1C(N)=O.Cl [F, 3-[(1H-imidazol-4-yl)methyl]-2-methoxybenzamide hydrochloride]	70000 nM	802 mg/kg	< 3 µmol/kg	IC30 [3]: 70 nM
NC(=O)c1cc(Cc2c[nH]cn2)ccc1O [G, 2-hydroxy-5-[(1H-imidazol-4-yl)methyl]-benzamide]	–	651 mg/kg	< 1 µmol/kg	–
CN(C)C(=O)c1cccc(Cc2c[nH]cn2)c1O [H, 2-hydroxy-3-[(1H-imidazol-4-yl)methyl]-N,N-dimethylbenzamide]	–	245 mg/kg	–	–
Cl.NC(=O)c1c(O)ccc(Cc2c[nH]cn2)c1O [I, 2,6-dihydroxy-3-[(1H-imidazol-4-yl)methyl]-benzamide hydrochloride]	300 nM	> 270 mg/kg	0.32 µmol/kg	–
CC(C)(C)c1cc(Cc2c[nH]cn2)c(O)c(C(N)=O)c1 [J, 5-tert-butyl-2-hydroxy-3-[(1H-imidazol-4-yl)methyl]-benzamide]	30000 nM	–	–	–
Cc1ccc(Cc2c[nH]cn2)c(O)c1C(N)=O.Cl [K, 2-hydroxy-3-[(1H-imidazol-4-yl)methyl]-6-methylbenzamide hydrochloride]	–	> 268 mg/kg	0.32 µmol/kg	–
Cc1ccc(C(N)=O)c(O)c1Cc1c[nH]cn1 [L, 2-hydroxy-3-[(1H-imidazol-4-yl)methyl]-4-methylbenzamide]	30 nM	231 mg/kg	–	–
Cl.O=C(NO)c1cccc(Cc2c[nH]cn2)c1O [M, N,2-dihydroxy-3-[(1H-imidazol-4-yl)methyl]-benzamide hydrochloride]	400 nM	> 288 mg/kg	–	–
CC(c1c[nH]cn1)c1ccc(O)c(C(N)=O)c1O.Cl (stereo not drawn) [N, 2,6-dihydroxy-3-[1-(1H-imidazol-4-yl)ethyl]-benzamide hydrochloride]	–	284 mg/kg	–	–
Cc1c(Cc2c[nH]cn2)ccc(O)c1C(N)=O.Cl [O, 6-hydroxy-3-[(1H-imidazol-4-yl)methyl]-2-methylbenzamide hydrochloride]	–	> 268 mg/kg	–	–
Clc1cccc(Cl)c1N=C1NCCN1 [clonidine, reference compound]	20 nM	–	–	IC30 [3]: 3.2 nM
CC(C)NCC(O)COc1cccc2ccccc12 (stereo not drawn) [propranolol, 1-(isopropylamino)-3-(1-naphthyloxy)-2-propanol, reference compound]	–	–	2 µmol/kg	reduction in ST-segment ([5]; dose 1.0 μmole/kg i.v.): 74%; reduction in the pulse rate ([5]; dose 1.0 μmole/kg i.v.): 35 beats/min.
